# From PMC2847038 (Hippocampus, 2010)
# Molecular target: T1, fatty acid amide hydrolase (FAAH) (Rattus norvegicus, UniProt P97612)
# T1 sequence (P97612 1-579): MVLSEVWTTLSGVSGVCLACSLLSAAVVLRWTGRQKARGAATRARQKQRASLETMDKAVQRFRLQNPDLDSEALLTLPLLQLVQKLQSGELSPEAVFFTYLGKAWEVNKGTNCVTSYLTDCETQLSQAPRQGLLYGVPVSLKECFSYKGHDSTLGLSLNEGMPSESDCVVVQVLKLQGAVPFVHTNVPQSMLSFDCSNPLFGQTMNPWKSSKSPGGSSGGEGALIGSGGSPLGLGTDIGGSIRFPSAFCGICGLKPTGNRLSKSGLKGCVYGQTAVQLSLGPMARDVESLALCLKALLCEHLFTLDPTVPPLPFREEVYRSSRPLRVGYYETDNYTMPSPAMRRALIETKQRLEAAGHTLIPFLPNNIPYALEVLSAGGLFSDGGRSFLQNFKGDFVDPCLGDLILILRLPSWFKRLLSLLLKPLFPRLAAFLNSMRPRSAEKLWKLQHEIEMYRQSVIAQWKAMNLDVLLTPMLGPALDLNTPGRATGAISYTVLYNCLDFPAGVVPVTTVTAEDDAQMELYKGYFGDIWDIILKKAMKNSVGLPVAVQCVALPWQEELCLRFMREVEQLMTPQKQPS
# Assay: Fatty acid amide hydrolase activity assay
# Format: biochemical, Sprague-Dawley rats
# Settings: hippocampus membranes
smiles,measurement,setting,value
"CCCCC/C=C\C/C=C\C/C=C\C/C=C\CCCC(=O)NCCO [anandamide, N-arachidonylethanolamide]",Vmax (maximal hydrolytic activity of FAAH),CON animals,619.4 +/- 56.9 pmol/mg protein
same,Vmax (maximal hydrolytic activity of FAAH),VEx animals,556.7 +/- 99.4 pmol/mg protein
